This note sets out measurements from US12691068B2, “Modular lipid compounds and two- to three-component lipid nanoparticle compositions” (SunVax mRNA Therapeutics Inc., priority 2022, dated 2026).

The subject of this test is HEK293T cells. The test can be described thus: In vitro transfection efficiency of LNPs encapsulating SamRNA-GFP in HEK293T cells (flow cytometry). Format: cell-based. The settings on record: modular lipid/DOPE/DMG-PEG2000 40/10/2 mole ratio, 100 ng RNA, 24 hours. As for the experimental part:
The modular lipids of the disclosure were mixed with at least one of ionizable lipid, DOPE, cholesterol (Chol), and/or DMG-PEG2000 in ethanol at a predetermined molar ratio. Ionizable lipid: SamRNA molar ratio of 6:1 was used to prepare an organic phase. SamRNA-LUC or SamRNA-GFP was diluted in 50 mM citrate buffer (pH 4.5, Fisher) or PBS (pH 7.4, Fisher) to prepare an aqueous phase. The SamRNA was stored at −80° C. and was thawed on ice prior to use. The ethanol and aqueous phases were mixed at a 1:3 ratio by pipette. The resultant LNPs were purified by ultrafiltration (100,000 cut-off, MilliporeSigma™ Amicon™ Ultra-15 Centrifugal Filter Units) at 4° C. prior to injection.
LNPs containing SamRNA-GFP or SamRNA-LUC were added into 96-well plate at 100 ng/well pre-seeded with HEK293, C2C12 or MC38 cells. After a 24 hour incubation at 37° C. and 5% CO2, the SamRNA-LUC transfection efficiency was measured by plate reader (Perkin Elmer Envision 2104) and GFP SamRNA transfection efficiency was measured by flow cytometry (BD FACSymphony™ A5 SE Cell Analyzer).
The transfection efficacy of LNPs formulated using modular lipids P161F5, P161F6 or P161F10; DOPE and DMG-PEG2000 (modular lipid/DOPE/DMG-PEG2000, 40/10/2 mole ratio) encapsulating LNP-SamRNA-GFP were studied using HEK293T cells in 96-well plates. […]
A general note: A flow cytometer gives signals particle by particle.

With `CCCCCCCCCCCCC(CCCCCCCCCC)CN(C(=O)CCC(C)C1CCC2C3CC(O)C4CC(O)CCC4(C)C3CCC12C)C(C(=O)NC12CC3CC(CC(C3)C1)C2)C1CCN(CC)CC1` (centres unmarked) [P161F6, N-(2-(((1s,3s)-adamantan-1-yl)amino)-1-(1-ethylpiperidin-4-yl)-2-oxoethyl)-N-(2-decyltetradecyl)-4-(3,6-dihydroxy-10,13-dimethylhexadecahydro-1H-cyclopenta[a]phenanthren-17-yl) pentanamide], the “transfection efficiencies compared with four-component LNPs containing MC3 and SM102” value was “comparable or higher”.

Consider `CCCCCCCCCCC(CCCCCCCC)CN(C(=O)CCC(C)C1CCC2C3CC(O)C4CC(O)CCC4(C)C3CCC12C)C(CC1CCN(C)CC1)C(=O)NC12CC3CC(CC(C3)C1)C2` (centres unmarked) [P161F10, N-(1-(((1s,3s)-adamantan-1-yl)amino)-3-(1-methylpiperidin-4-yl)-1-oxopropan-2-yl)-4-(3,6-dihydroxy-10,13-dimethylhexadecahydro-1H-cyclopenta[a]phenanthren-17-yl)-N-(2-octyldodecyl)pentanamide], for which the “transfection efficiencies compared with four-component LNPs containing MC3 and SM102” value is listed as “comparable or higher”.
